Measurements as given in US12195771B2, “Combination chemotherapy for the treatment of cancer” (WISCONSIN ALUMNI RESEARCH FOUNDATION, priority 2017, dated 2025).

B1: R4C/G38R/R39G/N67R/G89R/S90R/V118C RNase 1 (protein, UniProt P07998 29-156, looked up, variant R4C G38R R39G N67R G89R S90R V118C)
Ribonuclease pancreatic: KESCAKKFQRQHMDSDSSPSSSSTYCNQMMRRRNMTQRGCKPVNTFVHEPLVDVQNVCFQEKVTCKRGQGNCYKSNSSMHITDCRLTNRRRYPNCAYRTSPKERHIIVACEGSPYVPCHFDASVEDST
notes: gift from Quintessence Biosciences

What was measured:
[1] = tested on: human lung cancer cells (A549); test: Assay of cell viability with a single drug (tetrazolium dye-based MTS assay), A549; settings: single agent, 48 h, value ± SE, n = 3
Description: To test this hypothesis, we treated human lung cancer cells for 48 h with trametinib or with three other kinase inhibitors: PD 0332991 (which is a CDK4/CDK6 inhibitor), bosutinib (which is a Src family kinase inhibitor), or crizotinib (which is an ALK inhibitor) (Boschelli et al., 2001; Fry et al., 2004; Zou et al., 2007). We measured cell viability with a tetrazolium dye-based assay for metabolic activity. The ensuing EC50 values are listed in a Table 1 and in the table in FIG. 10.
(§1) Cells in complete growth medium were plated at 5,000 cells per well in a 96-well microplate, which was incubated for 24 h. […] After 48 h, the medium was removed, and cells were incubated for 2 h with CellTiter 96® MTS reagent from Promega. Absorbance was recorded on an M1000 fluorimeter from Tecan (Morrisville, NC) at 490 nm. Data were analyzed with Prism 5.0 software from GraphPad (La Jolla, CA). Values of EC50, which is the concentration of a drug that gives half-maximal cell viability, were calculated with the equation: […]
(§2) where y is cell viability, x is the concentration of drug, and h is the Hill coefficient. Data were plotted on a log scale with each data point being the mean of 3 biological replicates.

[2] = tested on: human A549 lung cancer cells; test: Assay of cell viability with two drugs (kinase inhibitor + ptRNase), A549; type: cell-based; settings: for Synergism with ptRNase?: A549 cells, two-drug combination with ptRNase
Description: We measured cell viability with a tetrazolium dye-based assay for metabolic activity.
We used the EC50 values obtained from single-drug treatment (Table 1) to design subsequent drug combination experiments. Two-drug combination experiments were performed using a 5×5 matrix to interrogate 25 concentration ratios per combination.
(§3) The EC50 values obtained from single-drug cell viability assays were used to design subsequent drug combination experiments. Two-drug combination experiments were performed by using a 5×5 matrix in 96-well plates to interrogate 25 dosing pairs. Cells in complete growth medium were plated at 5,000 cells per well in a 96-well microplate, which was incubated for 24 h at 37° C. […] After 48 h, cell viability was evaluated as described above.
(§4) The dose-effect curve for each drug was determined based on experimental observations and was compared to the effect afforded by the two-drug combination to derive a CI value. The CI values for all combinations were calculated using CalcuSyn 2.0 from Biosoft (Cambridge, UK). […] Each CI value was the mean of the results from 3 biological replicates.

H358 cells (KRAS G12C) [3] = test: Assay of cell viability with two drugs (ARS-853 + ptRNase), H358; type: cell-based, human; settings: 5×5 matrix, CI (FIG. 4C)
Description: as §3, §4

G12C variant of KRAS = G12C variant of KRAS (Homo sapiens, UniProt P01116, G12C); settings: Patricelli et al., 2016, Lito et al.; cited from earlier work
Chain of G12C variant of KRAS (P01116 1-188 isoform P01116-2 G12C): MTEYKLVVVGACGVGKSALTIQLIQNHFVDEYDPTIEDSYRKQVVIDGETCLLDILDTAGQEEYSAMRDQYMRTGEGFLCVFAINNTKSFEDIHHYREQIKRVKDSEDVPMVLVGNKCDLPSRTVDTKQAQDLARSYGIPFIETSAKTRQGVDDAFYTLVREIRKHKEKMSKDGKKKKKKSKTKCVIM

[4] = tested on: phosphorylation of MEK, ERK, RSK and RI in SK-MEL-28 cells; test: Immunoblotting and pull-down of biotinylated RI after kinase inhibitor treatment; type: cell-based, human; settings: for phosphorylation of MEK / phosphorylation of ERK and RSK: SK-MEL-28, 24 h; for phosphorylation of MEK: bosutinib 5 μM, crizotinib 2 μM, PD 0332991 2 μM, selumetinib 10 nM, dabrafenib 10 nM, trametinib 1 nM; for phosphorylation of ERK and RSK: same inhibitor concentrations as FIG. 6; for phosphorylation of RI (α-pSer, α-pThr): biotinylated RI captured from SK-MEL-28 cells, 24 h inhibitor treatment
Description: FIGS. 6A-6B are immunoblots showing that inhibition of the ERK pathway prevents the phosphorylation of RI in SK-MEL-28 cells. Cells transfected to produce biotinylated RI were treated with bosutinib (5 μM), crizotinib (2 μM), PD 0332991 (2 μM), selumetinib (10 nM), dabrafenib (10 nM), or trametinib (1 nM) for 24 h. (A) Treatment with inhibitors of non-ERK pathway kinases has no effect on the phosphorylation of MEK, ERK, or RSK in cell lysates. Treatment with dabrafenib reduces the phosphorylation of MEK (α-pMEK ½ lane) as well as that of ERK and RSK (α-pERK ½, and α-pRSK lanes). Treatment with selumetinib and trametinib reduces the phosphorylation of ERK and RSK. (B) Treatment with inhibitors of non-ERK pathway kinases has no effect on phosphorylation of biotinylated RI, which was captured by using streptavidin-coated magnetic beads. Inhibition of ERK-pathway kinases diminishes phosphorylation of RI (α-pThr, and α-pSer lanes).
The inventors further confirmed the apparent effect of kinase inhibitors on RI phosphorylation by immunoblotting. Biotinylated RI was isolated by using streptavidin-coated magnetic beads from SK-MEL-28 cells after transient transfection for 48 h. To detect phosphorylated species, we used α-pSer or α-pThr. […] These biochemical data provide direct evidence that kinases in the ERK pathway are indeed responsible for phosphorylating RI, in agreement with the observed synergism.
Cells grown in a 10-cm dish were lysed with 1 mL of M-PER™ Mammalian Protein Extraction Reagent (a mammalian protein extraction reagent that contains a mild, nondenaturing detergent) containing PIERCE™ Protease Inhibitor Tablets (tablets containing protease inhibitors AEBSF, aprotinin, bestatin, E-64, leupeptin, and pepstatin A), PIERCE™ Phosphatase Inhibitor Tablets (sodium fluoride, sodium orthovanadate, sodium pyrophosphate, and beta-glycerophosphate for broad-spectrum inhibition of phosphatase activity), and DTT (1 mM). Cell lysates were subjected to centrifugation for 10 min at 14,000 g to remove cell debris, and the total protein concentration in the supernatant was determined with a Bradford protein assay. Protein (˜30 μg) was separated by SDS-PAGE using a gel from Biorad (Hercules, CA), and the resulting gel was subjected to transfer to a PVDF membrane with an IBLOT® 2 (a dry transfer device that performs western blotting transfer without the need for liquid buffers) dry transfer system. The membrane was blocked for 1 h in a solution of BSA (5% w/v) in TBS-Tween (TBS-T), washed, and then incubated overnight at 4° C. with an antibody (1:500 dilution) in TBS-T containing BSA (5% w/v). After another wash with TBS-T, membranes were incubated with secondary antibody (1:3000 dilution), washed again, and then detected with an Amersham ECL Select Western Blotting Detection Reagent and by an ImageQuant™ LAS4000 instrument from GE Healthcare (Marlborough, MA).
For pull-down assays, after isolation of the total protein, samples were incubated overnight at 4° C. with Streptavidin […]® (magnetic particles coated with streptavidin) Paramagnetic Particles from Promega. The beads were washed (3×) with PBS containing 1 mM DTT. Samples were eluted with 50 μL of SDS gel-loading dye and processed further for immunoblotting.

[5] = tested on: human melanoma cells (SK-MEL-28, A375, Malme-3M); test: Assay of cell viability with two drugs, melanoma cell lines; type: cell-based; settings: across three melanoma cell lines (FIG. 5)
Description: None of the agents were toxic to normal skin fibroblasts at the tested doses (FIG. 10).
as §3, §4

V600E/K variants of BRAF = settings: Kefford et al., 2010; King et al., 2013; cited from earlier work
H358 cells (KRAS G12C) [6] = test: Assay of cell viability with a single drug (MTS assay), H358; type: cell-based, human
Description: as §1, §2

| Molecule | Synergism with ptRNase? [2] | EC50 ([1]; Homo sapiens) | phosphorylation of MEK [4] | phosphorylation of ERK and RSK [4] | phosphorylation of RI (α-pSer, α-pThr) [4] | also measured |
| --- | --- | --- | --- | --- | --- | --- |
| C=CC(=O)N1CC(N2CCN(C(=O)CNc3cc(C4(C)CC4)c(Cl)cc3O)CC2)C1 [ARS-853] | Yes |  |  |  |  | EC50 [1]: 74 ± 8 µM; synergy with the ptRNase judged by combination index (CI) ([2]; A549, 5×5 concentration matrix, kinase inhibitor 1 h then ptRNase, 48 h): additive effect; effect of combination with the ptRNase (H358 cells (KRAS G12C) [3]): enhanced the efficacy of both agents; cellular inhibitory activity against the G12C variant of KRAS (G12C variant of KRAS): robust cellular inhibitory activity |
| COc1cc(Nc2c(C#N)cnc3cc(OCCCN4CCN(C)CC4)c(OC)cc23)c(Cl)cc1Cl [Bosutinib] |  | 0.73 ± 0.06 µM |  |  |  |  |
| C[C@@H](Oc1cc(-c2cnn(C3CCNCC3)c2)cnc1N)c1c(Cl)ccc(F)c1Cl [Crizetinib] |  | 0.11 ± 0.02 µM | insignificant effects | insignificant effects | Strong bands for phosphorylated RI |  |
| CC(C)(C)c1nc(-c2cccc(NS(=O)(=O)c3c(F)cccc3F)c2F)c(-c2ccnc(N)n2)s1 [Dabrafenib] | Yes | 40 ± 5 µM | only a weak band of phosphorylated MEK | no detectable phosphorylation | no detectable phosphorylation | effect of combination with trametinib (without ptRNase) [5]: additive effect; synergy of combination with the ptRNase [5]: strong synergy; inhibitory activity against the V600E/K variants of BRAF (V600E/K variants of BRAF): robust inhibitory activity |
| CC(=O)c1c(C)c2cnc(Nc3ccc(N4CCNCC4)cn3)nc2n(C2CCCC2)c1=O [PD 0332991] | No | 0.24 ± 0.04 µM | insignificant effects | insignificant effects | Strong bands for phosphorylated RI |  |
| Cn1cnc2c(F)c(Nc3ccc(Br)cc3Cl)c(C(=O)NOCCO)cc21 [Selumetinib] |  | 43 ± 5 µM |  |  |  |  |
| CC(=O)Nc1cccc(-n2c(=O)n(C3CC3)c(=O)c3c(Nc4ccc(I)cc4F)n(C)c(=O)c(C)c32)c1 [Trametinib] |  | 5.7 ± 0.6 µM |  |  |  |  |
| B1 |  |  |  |  |  | EC50 [1]: 62 ± 7 µM; EC50 (H358 cells (KRAS G12C) [6]; H358 cells (KRAS G12C), single agent, mean ± SEM, n = 3): 3.6 ± 0.6 µM; cytotoxicity to H358 cells compared to A549 cells (H358 cells (KRAS G12C) [6]; H358 versus A549): 20 fold |
